Experimental data: PMC4539082 (Drug Design, Development and Therapy, 2015)
One block for each compound: values may come before it.

Tests used:
p3TP Lux mink lung cells = experiment: TGF-β-dependent luciferase assay in mink lung cells; assay type: cell-based; conditions: read-out: p3TP lux, IC50; Mean values ± SEM for a minimum of three determinations (n); data on file
p38MAPK = p38MAPK (Homo sapiens, UniProt Q16539); experiment: p38MAPK inhibition, single-point determination; assay type: biochemical; conditions: read-out: p38MAPK, IC50, data on file
TGF-βR-I kinase domain = molecular target: T1, TGF-βR-I kinase domain (Homo sapiens, UniProt P36897, T204D); experiment: Ki of Eli Lilly TGF-β SMIs; assay type: biochemical; conditions: data on file, Eli Lilly and Company
T1 sequence (P36897 148-503 T204D limits assumed): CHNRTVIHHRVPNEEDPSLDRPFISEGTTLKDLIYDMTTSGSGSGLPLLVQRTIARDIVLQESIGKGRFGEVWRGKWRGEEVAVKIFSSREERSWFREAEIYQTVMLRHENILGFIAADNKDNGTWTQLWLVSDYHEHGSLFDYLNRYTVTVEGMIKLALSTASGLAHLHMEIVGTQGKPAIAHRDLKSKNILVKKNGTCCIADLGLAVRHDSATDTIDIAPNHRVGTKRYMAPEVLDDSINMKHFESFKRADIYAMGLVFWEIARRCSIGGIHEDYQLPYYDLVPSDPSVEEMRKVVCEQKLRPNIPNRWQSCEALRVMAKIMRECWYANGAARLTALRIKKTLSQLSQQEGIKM

NIH3T3 = experiment: Growth inhibition in mouse fibroblasts; assay type: cell-based; conditions: read-out: NIH3T3, IC50; Mean values ± SEM for a minimum of three determinations (n); data on file
[1] = tested on: cell lines that had no T790M mutation; conditions: cell lines without T790M mutation; cited from earlier work
[2] = patients; cited from earlier work
Half-life in rat = assay type: in vivo
Half-life in dog = assay type: in vivo
PDX of melanoma = conditions: cited from earlier work
Half-life in mice = conditions: mouse, in vivo
[3] = one patient with malignant melanoma; doses up to 15 mg/kg; cited from earlier work
[4] = 13 patients, 3 mg/kg every 21 days; cited from earlier work
[5] = tested on: pSMAD2 in glioblastoma cell lines; conditions: lomustine by itself; cited from earlier work
MDAPCa2b and PC-3 = conditions: cited from earlier work
lung fibrosis = conditions: administration before, during, and after radiation treatment; cited from earlier work
NSCLC cell lines = conditions: cited from earlier work

p38MAPK, sequence (Q16539 whole entry, the tested form may be a part): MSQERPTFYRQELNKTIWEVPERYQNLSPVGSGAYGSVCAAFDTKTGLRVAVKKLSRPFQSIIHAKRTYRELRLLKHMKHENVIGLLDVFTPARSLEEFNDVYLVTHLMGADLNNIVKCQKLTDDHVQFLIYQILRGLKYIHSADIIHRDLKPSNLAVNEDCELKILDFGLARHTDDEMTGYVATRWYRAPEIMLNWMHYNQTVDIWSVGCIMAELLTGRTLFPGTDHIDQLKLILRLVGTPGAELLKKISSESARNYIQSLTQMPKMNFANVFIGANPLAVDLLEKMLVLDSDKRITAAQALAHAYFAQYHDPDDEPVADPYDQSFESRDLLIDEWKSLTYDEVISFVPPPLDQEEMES

IC50 (p3TP Lux mink lung cells): 96 ± 16 nM | IC50 (p38MAPK): > 20000 nM | Ki (TGF-βR-I kinase domain): 37 nM
Compound: Cc1cccc(-c2nn3c(c2-c2ccc(F)cc2)CCC3)n1 [LY580276]
IC50 (NIH3T3): 339 ± 349 nM

IC50 (p3TP Lux mink lung cells): 47 ± 16 nM | IC50 (p38MAPK): 740 nM
Compound: c1ccc(-c2[nH]ncc2-c2ccnc3ccccc23)nc1 [LY364947]
EGFR resistance [1]: able to overcome the EGFR resistance | IC50 (NIH3T3): 89 ± 10 nM

IC50 (p3TP Lux mink lung cells): 180 ± 93 nM | Half-life mean (Half-life in rat; Rat, data on file): 108 min | Half-life mean (Half-life in dog; Dog, data on file): 60 to 120 min
Compound: c1ccc(-c2nn3c(c2-c2ccnc4cc(OCCN5CCOCC5)ccc24)CCC3)nc1 [LY2109761]
antitumor activity, bone metastasis (MDAPCa2b and PC-3): inhibiting bone metastasis | IC50 (NIH3T3): 210 ± 170 nM | lung fibrosis (lung fibrosis): inhibited lung fibrosis | metastatic spread (NSCLC cell lines): reduced metastatic spread

More lines, now with the values behind:

Compound: Cc1cccc(-c2nn3c(c2-c2ccnc4ccc(C(N)=O)cc24)CCC3)n1 [Galunisertib (LY2157299)]
drug-related Grade 3/4 toxicities [2]: < 5% | half-life (Half-life in rat; rat, in vivo): 31.8 min | half-life (Half-life in dog; dog, in vivo): 136 min | pSMAD2 (PDX of melanoma; PDX of melanoma): inhibited | growth inhibitory effect (PDX of melanoma; standard tumor colony assay, melanoma PDX): no growth inhibitory effect | half-life (Half-life in mice): 18 min

Compound: fresolimumab: pan-TGF-β ligand monoclonal antibody
duration of partial response [3]: 44.4 weeks | radiographic responses [4]: None of the patients had radiographic responses

Compound: O=NN(CCCl)C(=O)NC1CCCCC1 [lomustine]
pSMAD2 [5]: reduced pSMAD2
